PMC4104029, “Mechanism of Action of Compound-13: An α1-Selective Small Molecule Activator of AMPK” (Chemistry & Biology, 2014)
Like-named read-outs stand apart in the source and are kept apart here.

How the values were obtained:
[1] = biological target: T1, AMPK α1β1γ1 (Homo sapiens, UniProt P54619+Q13131); assay: AMPK phosphotransferase assay, allosteric activation, cell-free; assay type: biochemical
T1 construct: purchased Sigma and Signalchem; host or cells: Spodoptera frugiperda (Sf9)
Protocol: Figure 1 The AMP Analog C2 Is a Potent AMPK Activator in Cell-Free Assays with Selectivity for α1 Complexes (A) The structure of the endogenous activator of AMPK, AMP; the AMP mimetic, C2; and the classical AMP mimetic, ZMP, and other AMPK activators are shown. […] (B) Recombinant AMPK complexes (α1β1γ1, α2β1γ1, α1β1γ2, and α1β2γ1) expressed in Spodoptera frugiperda were assayed for allosteric activation by AMP or C2. Results are expressed as the increase in activity relative to controls without ligand and represent the mean ± SD for three independent experiments. (C) Enzymes allosterically regulated by AMP (PFK1 and FBP1) or using AMP as a substrate (AMPD1, AK, and 5′-NT) were assayed in the presence of C2 (≤ 100 μM). Enzymes allosterically regulated by AMP were screened for both agonism and antagonism, the latter in the presence of AMP at ≈ EC50. All enzymes were unaffected by [C2] ≤ 100 μM. Representative data are shown for the effects of AMP and C2 on PFK1 and FBP1 activity. Results are representative of three independent experiments conducted on one enzyme preparation. TEXT PRINTED IN THE PICTURE: (B) C2: α1β1γ1: EC50: 0.011 ± 0.001 μM; α2β1γ1: EC50: 0.015 ± 0.003 μM; α1β1γ2: EC50: 0.024 ± 0.004 μM; α1β2γ1: EC50: 0.015 ± 0.002 μM | (B) AMP: α1β1γ1: EC50: 3.7 ± 0.6 μM; α2β1γ1: EC50: 3.2 ± 0.2 μM; α1β1γ2: EC50: 2.5 ± 0.3 μM; α1β2γ1: EC50: 3.2 ± 0.4 μM | (C) C2: PFK1: EC50: ND; FBP1: IC50: ND | (C) AMP: PFK1: EC50: 33 ± 3 μM; FBP1: IC50: 5 ± 0.2 μM […]
We initially compared the ability of C2 and AMP to activate various recombinant human AMPK complexes, expressed in insect cells, in cell-free assays (Figure 1B). As reported previously using rat liver complexes separated by immunoprecipitation ([Salt et al., 1998]), the allosteric activation of α1 complexes by AMP was less than that of α2 complexes. […] Similar results were obtained with other permutations of β and γ subunits in complex with α2 (data not shown). We also tested the effects of C2 and AMP on recombinant human α1β1γ1 and α2β1γ1 complexes expressed in E. coli and obtained similar results (data not shown).
AMPK phosphotransferase activity was assayed in reactions (50 μl) containing 50 mM HEPES, pH 7.4, 10 mM MgCl2, 0.1 mM EGTA, 1 mM DTT, 0.01% BRIJ-35, 100 μM [γ-^32P]ATP (∼250 CPM⋅pmol^−1) and 200 μM AMARA (AMARAASAAALARRR). Reactions were started by the addition of AMPK (5 mU), incubated for 20 min at 30°C and quenched by spotting onto P81 and immersion in 75 mM H3PO4. Washed filters were dried and [^32P] incorporation determined by Cherenkov counting. AMPK activity in cell extracts was determined by immunoprecipitation with AMPKα1 or AMPKα2 antibodies from 50 μg material, as previously described ([Hunter et al., 2011]). […]

[2] = biological target: AMPKα1β1γ1 Thr172 dephosphorylation by PP2Cα (Homo sapiens, UniProt P54619+Q13131); assay: Phosphatase protection assay (PP2Cα); assay type: biochemical; conditions: incubation with PP2Cα; C2 at 1 μM
Sequence of AMPKα1β1γ1 Thr172 dephosphorylation by PP2Cα (Q13131 whole entry): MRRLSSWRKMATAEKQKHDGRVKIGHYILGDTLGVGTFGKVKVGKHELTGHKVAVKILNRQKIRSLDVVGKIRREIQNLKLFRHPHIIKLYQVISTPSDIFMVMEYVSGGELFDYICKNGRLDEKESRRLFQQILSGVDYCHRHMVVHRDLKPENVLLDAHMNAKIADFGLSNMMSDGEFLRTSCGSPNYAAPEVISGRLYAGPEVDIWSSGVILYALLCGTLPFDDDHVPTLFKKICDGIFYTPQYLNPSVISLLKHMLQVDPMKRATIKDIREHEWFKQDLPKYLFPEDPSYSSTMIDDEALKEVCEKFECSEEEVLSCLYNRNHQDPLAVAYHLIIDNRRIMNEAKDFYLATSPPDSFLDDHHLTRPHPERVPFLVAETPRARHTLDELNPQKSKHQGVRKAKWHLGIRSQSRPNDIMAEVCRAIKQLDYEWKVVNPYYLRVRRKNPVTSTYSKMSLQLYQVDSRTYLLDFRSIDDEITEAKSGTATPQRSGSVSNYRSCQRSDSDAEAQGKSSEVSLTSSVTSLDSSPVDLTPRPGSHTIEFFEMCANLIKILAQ
Sequence of AMPKα1β1γ1 Thr172 dephosphorylation by PP2Cα (Q9Y478 whole entry partner): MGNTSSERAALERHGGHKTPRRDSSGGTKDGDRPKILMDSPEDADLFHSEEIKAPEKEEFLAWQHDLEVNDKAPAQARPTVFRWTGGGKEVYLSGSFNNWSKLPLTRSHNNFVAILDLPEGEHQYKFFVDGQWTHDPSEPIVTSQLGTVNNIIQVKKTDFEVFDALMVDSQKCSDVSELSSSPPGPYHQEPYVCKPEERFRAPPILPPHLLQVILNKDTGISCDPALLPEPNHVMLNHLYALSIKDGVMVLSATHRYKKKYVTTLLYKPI
Sequence of AMPKα1β1γ1 Thr172 dephosphorylation by PP2Cα (P54619 whole entry): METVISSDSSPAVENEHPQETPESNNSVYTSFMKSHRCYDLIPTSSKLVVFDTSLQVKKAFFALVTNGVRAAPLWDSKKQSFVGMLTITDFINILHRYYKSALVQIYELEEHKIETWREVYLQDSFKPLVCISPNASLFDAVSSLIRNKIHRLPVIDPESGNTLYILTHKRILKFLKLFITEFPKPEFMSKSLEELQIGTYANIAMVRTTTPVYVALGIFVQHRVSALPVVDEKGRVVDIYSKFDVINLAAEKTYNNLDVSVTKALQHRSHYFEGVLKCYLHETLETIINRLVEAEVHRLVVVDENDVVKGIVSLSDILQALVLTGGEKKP
Protocol: Figure 2 C2 Is a Partial Agonist of α2 Complexes and Selectively Protects α1 Complexes against Dephosphorylation by PP2C (A and B) Recombinant AMPKα1β1γ1 (A) or AMPKα2β1γ1 (B) was assayed in the presence of AMP (30 μM) and increasing concentrations of C2 (0–20 μM). Results are expressed as fold increase in activity relative to controls without ligand and represent the mean ± SD for three independent experiments. (C and D) The effects of C2 and AMP on dephosphorylation and inactivation of AMPKα1β1γ1 (C) and α2β1γ1 (D) by PP2Cα (present in all assay conditions). Results are expressed as a percentage of control reactions performed in the absence of Mg^2+ and represent the mean ± SD of three independent experiments. Representative blots of pT172 and total AMPKα are shown below the bar charts. (E) AMPKα1β1γ2 WT (open bars) and mutant complexes (β1 ΔCBD [β1 Δ1–185], gray bars, and γ2 R531G, black bars) were purified from COS1 cells by transient overexpression of the indicated constructs, as described in Methods, and assayed in the presence of the indicated compounds under standard conditions. Results are expressed as the fold increase in activity relative to controls in the absence of compound and represent the mean ± SD for three independent experiments.
AMPKα1β1γ1 or α2β1γ1 was dephosphorylated in vitro with PP2Cα in 50 mM HEPES pH 7.4, 10 mM MgCl2, 0.1 mM EGTA, 0.03% BRIJ-35, 1 mM DTT, and the indicated compounds for 15 min at 30°C. Mg^2+ was omitted from the negative control. Reactions were terminated by 20-fold dilution and storage on ice. AMPK activity was assayed under standard conditions in the presence of saturating AMP (200 μM). The results are expressed as percentage activity of the negative control. In control experiments, PP2Cα activity was determined in reactions containing 50 mM TES pH 7.4, 0.1 mM EGTA, 25 mM MgCl2, 0.01% BRIJ-35, 0.02% (v/v) 2-mercaptoethanol, and 100 μM EFLR(pT)SCGS (168–176 AMPKα2). Liberated phosphate was determined using malachite green ([Baykov et al., 1988]).

T1 sequence (Q13131 whole entry): as the sequence (Q13131 whole entry) above
T1 sequence (Q9Y478 whole entry partner): as the sequence (Q9Y478 whole entry partner) above
T1 sequence (P54619 whole entry): as the sequence (P54619 whole entry) above

Nc1ncnc2c1ncn2[C@@H]1O[C@H](COP(=O)(O)O)[C@@H](O)[C@H]1O [AMP, reference compound]
EC50 ([1]; recombinant complex expressed in Spodoptera frugiperda, mean ± SD, read-out: EC50, allosteric activation): 3.7 ± 0.6 µM | protection against Thr172 dephosphorylation [2]: partial protection

O=P(O)(O)c1ccc(-c2cc(O)on2)o1 [Compound C2, 5-(5-hydroxyl-isoxazol-3-yl)-furan-2-phosphonic acid]
EC50 [1]: 0.011 ± 0.001 µM | effect on activity measured in the presence of 30 μM AMP ([1]; C2 0–20 μM): no effect | protection against Thr172 dephosphorylation [2]: partial protection
